Read-outs that look alike come from different tables or passages of the source. Numbered stars: 1 amine (or outer) side, 2 acyl side, 3 side chain; on linkers, the order of the positions; unused ones are H or OH. Square brackets hold non-standard residues; d marks the D form. Side chains are listed from the residue outwards. Peptide text beside a SMILES is read from it. * marks the point of attachment. C20 diacid = O=C(O)CCCCCCCCCCCCCCCCCCC(=O)*; γGlu = O=C(O)[C@H](CCC(=O)[*:2])N[*:1]; AEEA = NCCOCCOCC(=O)O; Aib = CC(C)(N)C(=O)O
How the values were obtained:
SCTR = SCTR (Homo sapiens, UniProt P47872); test: hSCTR potency, cAMP accumulation in CHO-K1 cells stably overexpressing hSCTR; assay type: cell-based; design: alternatively Euroscreen ES-712-AF; FAST-0161L; host or cells: CHO-K1; conditions: cAMP accumulation, CHO-K1 cells overexpressing hSCTR
SCTR, sequence (P47872 23-440): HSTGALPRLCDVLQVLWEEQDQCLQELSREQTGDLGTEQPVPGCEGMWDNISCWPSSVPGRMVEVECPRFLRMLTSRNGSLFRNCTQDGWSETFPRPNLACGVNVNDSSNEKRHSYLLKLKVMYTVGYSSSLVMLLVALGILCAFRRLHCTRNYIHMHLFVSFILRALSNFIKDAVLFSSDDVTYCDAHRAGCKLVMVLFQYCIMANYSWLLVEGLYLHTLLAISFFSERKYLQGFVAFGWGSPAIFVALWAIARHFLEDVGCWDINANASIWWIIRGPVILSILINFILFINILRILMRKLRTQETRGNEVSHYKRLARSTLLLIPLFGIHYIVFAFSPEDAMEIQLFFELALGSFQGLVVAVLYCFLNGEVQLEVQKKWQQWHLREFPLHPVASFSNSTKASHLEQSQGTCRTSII
In short: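 CHO-K1/hSCTR cells; DPBS + 0.05% casein + 0.5 mM IBMX; 30 min RT stimulation; cAMP by TR-FRET read at 1 h. Crude peptides: 5-point 10-fold dilutions, n=1. Purified: 11-point 3-fold dilutions, n=2. EC50 via variable-slope fit.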

[1] = Fibril formation of crude library peptides (Thioflavin T); assay type: physicochemical; design: key: average ThT fluorescence emission at 480 nm (ex 450 nm), raw units; conditions: Physical stability of peptides
In short: (§1)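 Fibril formation is scored as average ThT fluorescence from duplicate samples monitored for 72 h at 40° C with shaking stress. Turbidity is the absorbance at 600 nm taken before heating. Peptide concentration was 267 μM at pH 4.0 or pH 7.0.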

[2] = Turbidity of crude library peptides (absorbance at 600 nm); assay type: physicochemical; conditions: Physical stability of peptides
In short: as §1

GLP1R = GLP1R (Homo sapiens, UniProt P43220); test: hGLP1R potency, cAMP accumulation in CHO-K1 cells stably overexpressing hGLP1R; assay type: cell-based; design: host or cells: CHO-K1; conditions: for Selectivity: SCTR EC50/GLP1R EC50 ratio; for EC50: cAMP accumulation, CHO-K1 cells overexpressing hGLP1R
GLP1R, sequence (P43220 24-463): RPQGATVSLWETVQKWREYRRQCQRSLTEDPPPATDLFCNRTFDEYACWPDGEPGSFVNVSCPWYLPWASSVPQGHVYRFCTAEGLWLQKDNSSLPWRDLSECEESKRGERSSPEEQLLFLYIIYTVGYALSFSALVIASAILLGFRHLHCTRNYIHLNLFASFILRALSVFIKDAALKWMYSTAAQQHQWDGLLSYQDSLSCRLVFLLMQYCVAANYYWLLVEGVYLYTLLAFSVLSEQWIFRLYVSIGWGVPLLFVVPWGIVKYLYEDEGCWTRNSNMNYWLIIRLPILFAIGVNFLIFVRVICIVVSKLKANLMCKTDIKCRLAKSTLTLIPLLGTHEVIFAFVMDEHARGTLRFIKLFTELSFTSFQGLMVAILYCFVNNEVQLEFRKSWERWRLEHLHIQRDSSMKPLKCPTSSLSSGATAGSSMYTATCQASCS
In short: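 TR-FRET cAMP read-out, one hour after reagent addition, following 30 min compound exposure at RT in DPBS/0.05% casein/0.5 mM IBMX. Crude peptides: 5 points, 10-fold steps, n=1. Purified peptides: 11 points, 3-fold steps, n=2. EC50 fitted with a variable-slope sigmoid.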

[3] = read-out: pEC50 hSCTR (converted)
[4] = read-out: pEC50 hGLPR1 (converted)

| EC50 (SCTR; [3]) | Fibril formation [1] | Turbidity (pH 7) [2] | Selectivity (GLP1R) | EC50 (GLP1R; [4]) | EC50 (SCTR; read-out: hSCTR pEC50 (converted)) | EC50 (GLP1R; read-out: hGLP1R pEC50 (converted)) | SCTR EC50/GLP1R EC50 ratio (GLP1R; selectivity for hGLP1R over hSCTR, cAMP accumulation in CHO-K1 cells) | Compound |
| --- | --- | --- | --- | --- | --- | --- | --- | --- |
| 2000 nM | 14290 | 0.09 | 86896 | 0.02 nM |  |  |  | CC(C)C[C@H](NC(=O)[C@H](Cc1ccccc1)NC(=O)[C@H](CCCNC(=N)N)NC(=O)[C@H](CCC(N)=O)NC(=O)C(C)(C)NC(=O)[C@H](C)NC(=O)[C@H](C)NC(=O)[C@@H](NC(=O)[C@H](CCC(=O)O)NC(=O)[C@H](CCCCNC(=O)COCCOCCNC(=O)COCCOCCNC(=O)CC[C@H](NC(=O)CCCCCCCCCCCCCCCCCCC(=O)O)C(=O)O)NC(=O)[C@H](CC(C)C)NC(=O)[C@H](CCC(=O)O)NC(=O)[C@H](CO)NC(=O)[C@@H](NC(=O)[C@H](CC(=O)O)NC(=O)[C@H](CO)NC(=O)[C@@H](NC(=O)[C@H](Cc1ccccc1)NC(=O)[C@@H](NC(=O)CNC(=O)[C@H](CCC(=O)O)NC(=O)C(C)(C)NC(=O)[C@@H](N)Cc1c[nH]cn1)[C@@H](C)O)[C@@H](C)O)C(C)C)[C@@H](C)O)C(=O)N[C@@H](CCC(=O)O)C(=O)N[C@@H](Cc1c[nH]cn1)C(=O)N[C@@H](CC(C)C)C(=O)N[C@H](C(N)=O)C(C)C [compound 45] (H-H[Aib]EGTFTSDVSELK([AEEA-AEEA-γGlu-C20 diacid])ETAA[Aib]QRFLEHLV-NH2) |
| 3980 nM | 16732 | 0.08 | 67329 | 0.0501 nM |  |  |  | CC(C)C[C@H](NC(=O)[C@H](Cc1ccccc1)NC(=O)[C@H](CCCNC(=N)N)NC(=O)[C@H](CCC(N)=O)NC(=O)C(C)(C)NC(=O)[C@H](C)NC(=O)[C@H](C)NC(=O)[C@H](Cc1ccccc1)NC(=O)[C@H](CCC(=O)O)NC(=O)[C@H](CCCCNC(=O)COCCOCCNC(=O)COCCOCCNC(=O)CC[C@H](NC(=O)CCCCCCCCCCCCCCCCCCC(=O)O)C(=O)O)NC(=O)[C@H](CC(C)C)NC(=O)[C@H](Cc1ccc(O)cc1)NC(=O)[C@H](CO)NC(=O)[C@@H](NC(=O)[C@H](CC(=O)O)NC(=O)[C@H](CO)NC(=O)[C@@H](NC(=O)[C@H](Cc1ccccc1)NC(=O)[C@@H](NC(=O)CNC(=O)[C@H](CCC(=O)O)NC(=O)C(C)(C)NC(=O)[C@@H](N)Cc1c[nH]cn1)[C@@H](C)O)[C@@H](C)O)C(C)C)C(=O)N[C@@H](CCC(=O)O)C(=O)N[C@@H](Cc1c[nH]cn1)C(=O)N[C@@H](CC(C)C)C(=O)N[C@H](C(N)=O)C(C)C [compound 46] (H-H[Aib]EGTFTSDVSYLK([AEEA-AEEA-γGlu-C20 diacid])EFAA[Aib]QRFLEHLV-NH2) |
|  | 4303 | 0.08 |  |  | 398 nM | 0.0158 nM | 23332 | CC(C)C[C@H](NC(=O)[C@H](Cc1ccccc1)NC(=O)[C@H](CCCNC(=N)N)NC(=O)[C@H](CCC(N)=O)NC(=O)[C@H](CC(C)C)NC(=O)C(C)(C)NC(=O)[C@H](C)NC(=O)[C@H](CCC(=O)O)NC(=O)[C@H](CCC(=O)O)NC(=O)[C@H](CCCCNC(=O)COCCOCCNC(=O)COCCOCCNC(=O)CC[C@H](NC(=O)CCCCCCCCCCCCCCCCCCC(=O)O)C(=O)O)NC(=O)[C@H](CC(C)C)NC(=O)[C@H](Cc1ccc(O)cc1)NC(=O)[C@H](CO)NC(=O)[C@@H](NC(=O)[C@H](CC(=O)O)NC(=O)[C@H](CO)NC(=O)[C@@H](NC(=O)[C@H](Cc1ccccc1)NC(=O)[C@@H](NC(=O)CNC(=O)[C@H](CCC(=O)O)NC(=O)C(C)(C)NC(=O)[C@@H](N)Cc1c[nH]cn1)[C@@H](C)O)[C@@H](C)O)C(C)C)C(=O)N[C@@H](CCC(=O)O)C(=O)N[C@@H](Cc1ccccc1)C(=O)N[C@@H](CC(C)C)C(=O)N[C@H](C(N)=O)C(C)C [compound 133] (H-H[Aib]EGTFTSDVSYLK([AEEA-AEEA-γGlu-C20 diacid])EEA[Aib]LQRFLEFLV-NH2) |
| 794 nM | 6999 | 0.08 | 33512 | 0.02 nM |  |  |  | CC(C)C[C@H](NC(=O)[C@H](CCC(=O)O)NC(=O)[C@H](CCCCNC(=O)COCCOCCNC(=O)COCCOCCNC(=O)CC[C@H](NC(=O)CCCCCCCCCCCCCCCCCCC(=O)O)C(=O)O)NC(=O)[C@H](CC(C)C)NC(=O)[C@H](CCC(=O)O)NC(=O)[C@H](CO)NC(=O)[C@@H](NC(=O)[C@H](CC(=O)O)NC(=O)[C@H](CO)NC(=O)[C@@H](NC(=O)[C@H](Cc1ccccc1)NC(=O)[C@@H](NC(=O)CNC(=O)[C@H](CCC(=O)O)NC(=O)C(C)(C)NC(=O)[C@@H](N)Cc1c[nH]cn1)[C@@H](C)O)[C@@H](C)O)C(C)C)C(=O)N[C@@H](C)C(=O)N[C@@H](C)C(=O)N[C@H](C(=O)N[C@@H](CCC(N)=O)C(=O)N[C@@H](CCCNC(=N)N)C(=O)N[C@@H](Cc1ccccc1)C(=O)N[C@@H](CC(C)C)C(=O)N[C@@H](CCC(=O)O)C(=O)N[C@@H](Cc1c[nH]cn1)C(=O)N[C@@H](CC(C)C)C(=O)N[C@H](C(N)=O)C(C)C)[C@@H](C)O [compound 80] (H-H[Aib]EGTFTSDVSELK([AEEA-AEEA-γGlu-C20 diacid])ELAATQRFLEHLV-NH2) |

Further lines, the compound ahead of its results:

| Compound | EC50 (SCTR; [3]) | Fibril formation [1] | Turbidity (pH 7) [2] | Selectivity (GLP1R) | EC50 (GLP1R; [4]) | EC50 (SCTR; read-out: hSCTR pEC50 (converted)) | EC50 (GLP1R; read-out: hGLP1R pEC50 (converted)) | SCTR EC50/GLP1R EC50 ratio (GLP1R; selectivity for hGLP1R over hSCTR, cAMP accumulation in CHO-K1 cells) |
| --- | --- | --- | --- | --- | --- | --- | --- | --- |
| CC(C)C[C@H](NC(=O)[C@H](Cc1ccccc1)NC(=O)[C@H](CCCNC(=N)N)NC(=O)[C@H](CCC(N)=O)NC(=O)[C@H](CO)NC(=O)[C@H](C)NC(=O)[C@H](C)NC(=O)[C@H](CCC(=O)O)NC(=O)[C@H](CCC(=O)O)NC(=O)[C@H](CCCCNC(=O)COCCOCCNC(=O)COCCOCCNC(=O)CC[C@H](NC(=O)CCCCCCCCCCCCCCCCCCC(=O)O)C(=O)O)NC(=O)[C@H](CC(C)C)NC(=O)[C@@H](NC(=O)[C@H](CO)NC(=O)[C@@H](NC(=O)[C@H](CC(=O)O)NC(=O)[C@H](CO)NC(=O)[C@@H](NC(=O)[C@H](Cc1ccccc1)NC(=O)[C@@H](NC(=O)CNC(=O)[C@H](CCC(=O)O)NC(=O)C(C)(C)NC(=O)[C@@H](N)Cc1c[nH]cn1)[C@@H](C)O)[C@@H](C)O)C(C)C)[C@@H](C)O)C(=O)N[C@@H](CCC(=O)O)C(=O)N[C@@H](Cc1c[nH]cn1)C(=O)N[C@@H](CC(C)C)C(=O)N[C@H](C(N)=O)C(C)C [compound 6] (H-H[Aib]EGTFTSDVSTLK([AEEA-AEEA-γGlu-C20 diacid])EEAASQRFLEHLV-NH2) | 316 nM | 6489 | 0.09 | 11820 | 0.0316 nM |  |  |  |
| CC(C)C[C@H](NC(=O)[C@H](Cc1ccccc1)NC(=O)[C@H](CCCNC(=N)N)NC(=O)[C@H](CCC(N)=O)NC(=O)[C@H](CCC(N)=O)NC(=O)[C@H](C)NC(=O)[C@H](C)NC(=O)[C@H](CCC(=O)O)NC(=O)[C@H](CCC(=O)O)NC(=O)[C@H](CCCCNC(=O)COCCOCCNC(=O)COCCOCCNC(=O)CC[C@H](NC(=O)CCCCCCCCCCCCCCCCCCC(=O)O)C(=O)O)NC(=O)[C@H](CC(C)C)NC(=O)[C@@H](NC(=O)[C@H](CO)NC(=O)[C@@H](NC(=O)[C@H](CC(=O)O)NC(=O)[C@H](CO)NC(=O)[C@@H](NC(=O)[C@H](Cc1ccccc1)NC(=O)[C@@H](NC(=O)CNC(=O)[C@H](CCC(=O)O)NC(=O)C(C)(C)NC(=O)[C@@H](N)Cc1c[nH]cn1)[C@@H](C)O)[C@@H](C)O)C(C)C)[C@@H](C)O)C(=O)N[C@@H](CCC(=O)O)C(=O)N[C@@H](Cc1c[nH]cn1)C(=O)N[C@@H](CC(C)C)C(=O)N[C@H](C(N)=O)C(C)C [compound 39] (H-H[Aib]EGTFTSDVSTLK([AEEA-AEEA-γGlu-C20 diacid])EEAAQQRFLEHLV-NH2) | 316 nM | 9592 | 0.08 | 17346 | 0.0158 nM |  |  |  |
| CC(C)C[C@H](NC(=O)[C@H](Cc1ccccc1)NC(=O)[C@H](CCCNC(=N)N)NC(=O)[C@H](CCC(N)=O)NC(=O)[C@H](CO)NC(=O)[C@H](C)NC(=O)[C@H](C)NC(=O)[C@H](CCC(=O)O)NC(=O)[C@H](CCC(=O)O)NC(=O)[C@H](CCCCNC(=O)COCCOCCNC(=O)COCCOCCNC(=O)CC[C@H](NC(=O)CCCCCCCCCCCCCCCCCCC(=O)O)C(=O)O)NC(=O)[C@H](CC(C)C)NC(=O)[C@H](CCCNC(=N)N)NC(=O)[C@H](CO)NC(=O)[C@@H](NC(=O)[C@H](CC(=O)O)NC(=O)[C@H](CO)NC(=O)[C@@H](NC(=O)[C@H](Cc1ccccc1)NC(=O)[C@@H](NC(=O)CNC(=O)[C@H](CCC(=O)O)NC(=O)C(C)(C)NC(=O)[C@@H](N)Cc1c[nH]cn1)[C@@H](C)O)[C@@H](C)O)C(C)C)C(=O)N[C@@H](CCC(=O)O)C(=O)N[C@@H](Cc1c[nH]cn1)C(=O)N[C@@H](CC(C)C)C(=O)N[C@H](C(N)=O)C(C)C [compound 17] (H-H[Aib]EGTFTSDVSRLK([AEEA-AEEA-γGlu-C20 diacid])EEAASQRFLEHLV-NH2) | 251 nM | 10330 | 0.08 | 10637 | 0.0251 nM |  |  |  |
